Where “and” joins values, the source holds several entries; their conditions need not be identical. Equal values may be shown once. Read-outs that look alike come from different tables or passages of the source.
Assays:
[1] = system: TNBS-induced colitis in the rat; test: TNBS-induced colitis model of inflammatory bowel disease in the rat;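 also: rat colitis induced by intracolonic TNBS in 50% ethanol, distal colon assessed at sacrifice on day 7, with saline-instilled vehicle-treated rats as controls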
Experimental: Colitis was induced by intracolonic instillation of the hapten TNBS (60 mg/mL) in 0.5 mL of 50% ethanol. […] An additional group of rats received saline intracolonically in place of TNBS/ethanol and was treated with vehicle at the same times as outlined above. Body weights were recorded at the beginning of the study and at days 2 and 7.
The rats were sacrificed on the 7th day after the induction of colitis and the extent of damage and inflammation was assessed. After the rats were sacrificed, the distal colon was removed and pinned out on a wax platform. The presence or absence of diarrhea was noted, as well as the presence and severity of adhesions between the colon and other organs, and the severity and extent of colonic damage. […] After scoring, a sample of colonic tissue was excised for measurement of myeloperoxidase activity as an index of granulocyte infiltration (see Wallace et al., Gastroenterology 117: in press, 1999; and Morris et al., Gastroenterology 96:795-803, 1989). This tissue sample was 1 cm long (along the axis of the colon) and 5 mm wide and was taken from a region of macroscopically visible damage (or the corresponding region in any rats in which there was no damage). The remainder of the tissue was fixed in neutral buffered formalin and processed by routine methods for subsequent evaluation by light microscopy. In a blinded manner, the sample of colonic tissue from each rat was examined for evidence of mucosal ulceration and inflammation. The percentage of the luminal surface of the section in which ulceration was present was calculated.

[2] = system: primary human neutrophils; test: Generation of reactive oxygen species by fMLP-activated neutrophils (luminol-enhanced chemiluminescence); format: cell-based; details: Neutrophil
Text: Neutrophil activation can be measured by quantitation of ROS generated in vitro. Measurement of ROS allows specific quantitation of a pro-inflammatory species and is also a general measure of neutrophil activation. The most sensitive method for measuring the production of ROS by neutrophils is luminol-enhanced chemiluminescence. […] The assay system used to evaluate the ability of compounds to inhibit ROS generation in neutrophils is indicative of anti-inflammatory activity that may be efficacious in disease states including but not limited to rheumatoid arthritis and inflammatory bowel disease.
Freshly isolated primary human neutrophils (5×10^6 cells/mL) were incubated with the required concentrations of compound or vehicle for 30 minutes at 37° C. in HBSS buffer (pH 7.4) containing Ca^2+. 100 nM wortmannin was used as a positive control. Aliquots of each sample were transferred to a microtitre plate to which luminol (1 μM); obtained from Sigma; Catalogue No. A8511 is added. Activation of the neutrophils was immediately initiated by addition of (1 μM) fMLP; obtained from Sigma, Catalogue No. F3506. Light output from each well was recorded for 30 minutes in a microplate luminometer. Total light output (integral of the time-course) was determined for each well. Inhibitory activities of test drugs against neutrophil ROS generation is expressed as percentage activity relative to a no drug control (100% activation or generation of ROS) containing 0.25% DMSO. Concentration of test compound required to inhibit the generation of ROS to 50% of control values (IC50's) were determined from concentration-response curves by non-linear regression analysis.

[3] = system: cAMP response element luciferase activity in human U937 monocytic cells; test: Potentiation of forskolin-induced CRE-luciferase activity in U937 cells; format: cell-based; details: U-937, U937 cells co-incubated with 10 μM forskolin, 4 hours, X marks this range
Experimental: Compounds of the present invention were thereby shown to provide potentiated luciferase expression in U937 cells treated with the adenylyl cyclase activator forskolin.
Human pro-monocytic U937 cells were maintained in RPMI medium containing 10% FCS and 2 mM […]. U937 cells were transiently transfected as described in Biotechniques Vol. 17(6):1058, 1994. Briefly, cells were grown in medium containing serum to a density of 5×10^6 cells/mL and then resuspended in media containing serum at a density of approximately 1×10^7 cells/mL. 400 μL of cells were transferred into the electroporation cuvette containing 10 μg of the reporter vector (PCRE-luc) in a volume of 40 μL H2O. Reporter vector DNA was prepared from DH5α E. coli using the DNA […] free kit (Qiagen) as per manufacturers instructions. U937 cells were clectroporated at room temperature using a BIORAD electroporator. Capacitance was set to 1050 μF and voltage was 280V. The time constant was noted after each electroporation. Cells were then diluted in 4 mL of media and serum and 200 μL of cells were plated per well. Cells were allowed to recover for 16-18 hours. Cells were then treated with a test compound or vehicle in the presence or absence of 10 μM forskolin for 4 hours at 37° C.
The luciferase assay was performed as per manufacturers instructions (Tropix). Briefly, cells were centrifuged for 4 minutes at 1200 rpm and media supernatant was removed. Cell pellets were lysed in 15 μL Lysis buffer (Tropix). Luciferase assay was performed using 10 μL of cell lysate with 10 μL of buffer A and 25 μL buffer B. Luciferase activity was obtained using a luminometer with a 5-second delay followed by a read time of 10 seconds.

[4] = system: High Affinity Rolipram Binding Site of PDE4 in Mouse Brain; test: Displacement of [3H]-rolipram from its high affinity binding site (HARBS); details: ratio of IC50 for PDE4 catalytic activity to concentration displacing 50% of rolipram from HARBS
Experimental: Suspension was centrifuged twice at 30,000×G at 4° C. and the supernatant discarded. The pellet was resuspended in buffer, and adjusted to a protein concentration of 0.5 mg/mL. Drugs to be tested were dissolved in DMSO and pipetted in triplicate into a 96 well microplate at concentrations ranging from 1 to 30,000 nM. […] The plate was incubated at 4° C. for 1 hour. Contents of the plate were aspirated through a Whatman GF/C filterplate, and rinsed with 4×200 μL ice-cold buffer. […] Triplicate determinations were performed at each concentration.

[5] = target: T1, cAMP phosphodiesterase 3 from human platelets (Homo sapiens, UniProt Q14432); test: Inhibition of cAMP phosphodiesterase 3 from human platelets; format: biochemical; details: for IC50: PDE3, platelet cell extract, X marks this range
T1 construct: from tissue; host or cells: human platelets, cytoplasmic extract
Text: Compound 12 was screened for activity against 5 of the major classes of mammalian cyclic nucleotide phosphodiesterase (termed PDE 1 through 5). PDE's 1 through 4 utilize cAMP as substrate while PDE 5 uses cGMP. The broad specificity PDE inhibitor 3-isobutyl-1-methylxanthine (IBMX; Sigma; Catalogue No. 17018)) was used as a positive control in all assays. PDE's for the various assays were partially purified from the following cells/tissues; PDE 1 (bovine heart), PDE 2 (human platelets), PDE 3 (human platelets), PDE 4 (human promonocytic U937 cells) and PDE 5 (human platelets).
Platelet cell extracts were prepared as described above for the U937 cells. The PDE3 assay was performed using platelet cell extract as described above for the PDE 4 assay. Platelets contain PDE 2, 3 and 5. However PDE2 and 5 preferentially utilize cGMP, so in an assay with cAMP as a substrate they are not detected.

[6] = 100 mg/kg intracolonically at 12 h intervals for one week
[7] = 100 mg/kg intracolonically at 12 h intervals for one week, day 7
[8] = read-out: IC50 RANGE (μM) >100, ROS production, X marks this range
[9] = read-out: IC50 range (μM) 10-100
[10] = read-out: IC50 RANGE (μM) <1, ROS production, X marks this range
[11] = read-out: EC50 range (μM) 0.1-1

T1 sequence (Q14432 whole entry): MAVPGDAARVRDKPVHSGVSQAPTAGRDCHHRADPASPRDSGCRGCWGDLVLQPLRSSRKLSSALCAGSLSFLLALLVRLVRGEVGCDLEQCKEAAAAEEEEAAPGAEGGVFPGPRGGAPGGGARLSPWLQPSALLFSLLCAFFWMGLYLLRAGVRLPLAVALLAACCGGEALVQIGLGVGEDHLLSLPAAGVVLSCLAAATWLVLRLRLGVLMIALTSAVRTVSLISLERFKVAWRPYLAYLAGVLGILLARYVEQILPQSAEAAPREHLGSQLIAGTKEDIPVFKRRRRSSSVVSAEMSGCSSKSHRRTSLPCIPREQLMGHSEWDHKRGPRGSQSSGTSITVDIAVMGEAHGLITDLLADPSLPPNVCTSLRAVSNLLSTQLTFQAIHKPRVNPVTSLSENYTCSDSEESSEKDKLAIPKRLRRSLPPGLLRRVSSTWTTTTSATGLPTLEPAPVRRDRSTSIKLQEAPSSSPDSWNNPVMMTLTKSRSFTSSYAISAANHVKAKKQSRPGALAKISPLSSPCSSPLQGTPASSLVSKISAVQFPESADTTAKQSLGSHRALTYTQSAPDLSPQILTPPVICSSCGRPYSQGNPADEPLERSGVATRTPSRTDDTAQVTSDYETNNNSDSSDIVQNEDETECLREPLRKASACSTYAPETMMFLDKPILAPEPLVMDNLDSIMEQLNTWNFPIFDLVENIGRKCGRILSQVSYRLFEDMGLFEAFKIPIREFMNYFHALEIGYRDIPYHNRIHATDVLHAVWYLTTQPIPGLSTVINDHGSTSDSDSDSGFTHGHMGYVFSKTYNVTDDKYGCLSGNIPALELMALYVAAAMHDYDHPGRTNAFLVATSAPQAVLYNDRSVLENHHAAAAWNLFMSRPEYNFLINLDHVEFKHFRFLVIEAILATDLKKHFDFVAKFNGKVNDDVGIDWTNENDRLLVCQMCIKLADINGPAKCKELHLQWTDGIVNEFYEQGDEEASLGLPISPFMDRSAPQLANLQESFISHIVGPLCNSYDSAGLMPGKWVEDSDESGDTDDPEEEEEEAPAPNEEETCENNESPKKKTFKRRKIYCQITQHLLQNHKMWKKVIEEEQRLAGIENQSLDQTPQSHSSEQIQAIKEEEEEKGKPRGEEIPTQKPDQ

## Nc1ccc(O)c(C(=O)O)c1 [Compound 5-ASA, 5-aminosalicylic acid]
[1]; [6]
  Body Weight Change (%): −20.2 ± 3.4%
  Mortality: 0/8
[1]; [7]
  Adhesion (Incidence): (7/8)
  Adhesion Score: 1.4 ± 0.3
  Bowel Thickness (mm): 2.66 ± 0.69 mm
  Damage Score: 6.3 ± 0.8
  Global Colitis Score: 10.41 ± 1.58
[1]; 100 mg/kg, one-week study
  loss of body weight: ~20%
[1]; colonic tissue, 100 mg/kg intracolonically at 12 h intervals for one week, day 7
  MPO Activity (U/mg): 67.5 ± 8.8 U/mg
[1]; incidence, 100 mg/kg intracolonically at 12 h intervals for one week, day 7, 100 mg/kg
  Diarrhea: significantly reduce and 1/8
[1]; percentage of luminal surface ulcerated, 100 mg/kg intracolonically for one week, day 7
  Histology Score: 91.4 ± 5.9

## COc1ccc([C@H]2COC(=O)C(Cc3ccc(OCc4ccccc4)c(OC)c3)C2)cc1OC (stereo partly drawn) [Compound 22]
[2]; [8]
  IC50: > 100 µM
[3]; read-out: EC50 range (μM) 1-25
  EC50: 1 to 25 µM
[4]
  PDE4:HARBS: <1
[5]
  IC50: > 100 µM

## COc1ccc([C@@H]2CCC(=O)NC2)cc1OC [Compound 46]
[2]; ROS production, X marks this range, read-out: IC50 RANGE (μM) 10-100
  IC50: 10 to 100 µM
[3]; read-out: EC50 range (μM) 1-25
  EC50: 1 to 25 µM
[4]
  PDE4:HARBS: >1
[5]
  IC50: > 100 µM

## COc1ccc([C@@H]2CCC(=O)N(Cc3ccccc3)C2)cc1OC [Compound 47]
[2]; ROS production, X marks this range, read-out: IC50 RANGE (μM) 1-10
  IC50: 1 to 10 µM
[3]; read-out: EC50 range (μM) 1-25
  EC50: 1 to 25 µM
[5]; [9]
  IC50: 10 to 100 µM

## COc1ccc([C@@H]2CCC(=O)NC2)cc1OC1CCCC1 [Compound 58]
[2]; [10]
  IC50: < 1 µM
[3]; [11]
  EC50: 0.1 to 1 µM
[4]
  PDE4:HARBS: >1
[5]
  IC50: > 100 µM

## COc1ccc([C@H]2COC(=O)C(Cc3ccc(F)c(F)c3)C2)cc1OC (stereo partly drawn) [Compound 77]
[2]; [8]
  IC50: > 100 µM
[3]; read-out: EC50 range (μM) 1-25
  EC50: 1 to 25 µM
[5]; [9]
  IC50: 10 to 100 µM

## COc1ccc([C@H]2COC(=O)C(Cc3ccc(O)c(O)c3)C2)cc1OC (stereo partly drawn) [Compound 80]
[2]; [10]
  IC50: < 1 µM
[3]; read-out: EC50 range (μM) 1-25
  EC50: 1 to 25 µM
[5]; [9]
  IC50: 10 to 100 µM

## COc1ccc([C@H]2COC(=O)C(C)C2)cc1OC1CCCC1 (stereo partly drawn) [Compound 95]
[5]
  IC50: > 100 µM

## C=CCC1C[C@@H](c2ccc(OC)c(OC3CCCC3)c2)COC1=O (stereo partly drawn) [Compound 96]
[5]
  IC50: > 100 µM

## COc1ccc([C@H]2COC(=O)C(Cc3ccc(O)c(N)c3)C2)cc1Cc1ccccc1 (stereo partly drawn) [Compound 114]
[5]
  IC50: > 100 µM

## COc1ccc([C@H]2COC(=O)C(Cc3cccc(O)c3)C2)cc1OC (stereo partly drawn) [Compound 131]
[2]; [10]
  IC50: < 1 µM
[3]; read-out: EC50 range (μM) 1-25
  EC50: 1 to 25 µM
[5]
  IC50: > 100 µM

## COc1ccc([C@H]2COC(=O)C(Cc3ccccc3)C2)cc1OC (stereo partly drawn) [Compound 139]
[2]; [8]
  IC50: > 100 µM
[3]; read-out: EC50 range (μM) 1-25
  EC50: 1 to 25 µM
[5]
  IC50: > 100 µM

## CCOc1cc(C2CCC(=O)OC2)ccc1OC (stereo not drawn) [Compound 153]
[2]; [10]
  IC50: < 1 µM
[3]; read-out: EC50 range (μM) 1-25
  EC50: 1 to 25 µM
[4]
  PDE4:HARBS: >1

## CCCOc1cc(C2CCC(=O)OC2)ccc1OC (stereo not drawn) [Compound 154]
[2]; [10]
  IC50: < 1 µM
[3]; read-out: EC50 range (μM) 1-25
  EC50: 1 to 25 µM
[4]
  PDE4:HARBS: >1

## COc1ccc([C@@H]2CCC(=O)OC2)cc1OCC1CCCCC1 [Compound 158]
[3]; [11]
  EC50: 0.1 to 1 µM
[4]
  PDE4:HARBS: <1
[5]
  IC50: > 100 µM

## CCCCCOc1cc([C@@H]2CCC(=O)OC2)ccc1OC [Compound 159]
[3]; read-out: EC50 range (μM) >25
  EC50: > 25 µM
[4]
  PDE4:HARBS: >1
[5]
  IC50: > 100 µM

## CCCCCCOc1cc([C@@H]2CCC(=O)OC2)ccc1OC [Compound 160]
[3]; read-out: EC50 range (μM) 1-25
  EC50: 1 to 25 µM
[4]
  PDE4:HARBS: <1
[5]
  IC50: > 100 µM

## CCCCCCCOc1cc([C@@H]2CCC(=O)OC2)ccc1OC [Compound 161]
[3]; read-out: EC50 range (μM) >25
  EC50: > 25 µM
[4]
  PDE4:HARBS: <1
[5]
  IC50: > 100 µM

## CCCCCCCCOc1cc([C@@H]2CCC(=O)OC2)ccc1OC [Compound 162]
[3]; read-out: EC50 range (μM) >25
  EC50: > 25 µM
[5]
  IC50: > 100 µM

## COc1ccc([C@H]2COC(=O)C(Cc3cccc(C(F)(F)F)c3)C2)cc1OC1CCCC1 (stereo partly drawn) [Compound 169]
[4]
  PDE4:HARBS: <1

## COc1ccc([C@H]2COC(=O)C(Cc3ccc4c(c3)OCO4)C2)cc1OC1CCCC1 (stereo partly drawn) [Compound 171]
[4]
  PDE4:HARBS: <1

## COc1ccc([C@H]2COC(=O)C(Cc3cccc(OCc4ccccc4)c3)C2)cc1OC1CCCC1 (stereo partly drawn) [Compound 172]
[4]
  PDE4:HARBS: <1

## COc1ccc([C@H]2COC(=O)C(Cc3ccc(C)c([N+](=O)[O-])c3)C2)cc1OC1CCCC1 (stereo partly drawn) [Compound 176]
[4]
  PDE4:HARBS: >1

## COc1ccc(CC2C[C@@H](c3ccc(OC)c(OC4CCCC4)c3)COC2=O)cc1O (stereo partly drawn) [Compound 180]
[4]
  PDE4:HARBS: >1

## COc1ccc([C@H]2COC(=O)C(Cc3cccc(O)c3)C2)cc1OC1CCCC1 (stereo partly drawn) [Compound 182]
[4]
  PDE4:HARBS: <1

## COc1ccc([C@H]2COC(=O)C(Cc3ccc(O)cc3)C2)cc1OC1CCCC1 (stereo partly drawn) [Compound 183]
[4]
  PDE4:HARBS: <1

## COc1ccc([C@H]2COC(=O)C(Cc3ccc(N)cc3)C2)cc1OC1CCCC1 (stereo partly drawn) [Compound 185]
[4]
  PDE4:HARBS: >1

## COc1ccc(N)cc1CC1C[C@@H](c2ccc(OC)c(OC3CCCC3)c2)COC1=O (stereo partly drawn) [Compound 186]
[4]
  PDE4:HARBS: >1

## COc1ccc([C@H]2COC(=O)C(Cc3ccc(C)c(N)c3)C2)cc1OC1CCCC1 (stereo partly drawn) [Compound 187]
[4]
  PDE4:HARBS: >1

## COc1cc2c(cc1OC)-c1c/c(=N\c3c(C)cc(C)cc3C)n(C)c(=O)n1CC2 [trequinsin, reference compound]
[5]; platelet cell extract, cAMP as substrate
  effect in PDE3 assay: potent inhibitor

Reference: patent publication US20030186943A1, “Substituted gamma-phenyl-delta-lactams and uses related thereto” (Inflazyme Pharmaceuticals Ltd., priority 1998, published 2003)
